Measurements published in the NIST ThermoML archive (doi:10.1016/j.jct.2009.11.014).

Details: Liquid; for mass density: vibrating tube; for viscosity: Stony Brook Scientific falling needle HPHTV-100 viscometer

CCCCCCCC[n+]1ccn(C)c1.F[B-](F)(F)F [1-methyl-3-octylimidazolium tetrafluoroborate]
Details | mass density [kg/m3] | viscosity [mPa·s]
283.15 K, 100 kPa | 1114.58 | –
283.15 K, 2000 kPa | 1115.49 | –
283.15 K, 4000 kPa | 1116.46 | –
283.15 K, 6000 kPa | 1117.44 | –
283.15 K, 8000 kPa | 1118.4 | –
283.15 K, 10000 kPa | 1119.31 | –
283.15 K, 12000 kPa | 1120.25 | –
283.15 K, 14000 kPa | 1121.19 | –
283.15 K, 20000 kPa | 1123.96 | –
283.15 K, 30000 kPa | 1128.45 | –
283.15 K, 40000 kPa | 1132.79 | –
283.15 K, 50000 kPa | 1136.9 | –
283.15 K, 60000 kPa | 1140.94 | –
283.53 K, 140 kPa | – | 774.7
283.53 K, 680 kPa | – | 781
283.55 K, 1680 kPa | – | 793.9
283.55 K, 7960 kPa | – | 878.4
283.6 K, 11830 kPa | – | 908.6
283.6 K, 14620 kPa | – | 950.1
283.61 K, 10090 kPa | – | 894.7
283.63 K, 4380 kPa | – | 815.4
283.65 K, 4110 kPa | – | 811.4
283.67 K, 5540 kPa | – | 834.1
283.72 K, 2750 kPa | – | 803.7
288.15 K, 100 kPa | 1111.12 | –
288.15 K, 2000 kPa | 1112.07 | –
288.15 K, 4000 kPa | 1113.07 | –
288.15 K, 6000 kPa | 1114.04 | –
288.15 K, 8000 kPa | 1115.03 | –
288.15 K, 10000 kPa | 1116.03 | –
288.15 K, 12000 kPa | 1116.94 | –
288.15 K, 14000 kPa | 1117.9 | –
288.15 K, 20000 kPa | 1120.72 | –
288.15 K, 30000 kPa | 1125.21 | –
288.15 K, 40000 kPa | 1129.56 | –
288.15 K, 50000 kPa | 1133.75 | –
288.15 K, 60000 kPa | 1137.81 | –
293.15 K, 100 kPa | 1107.68 | –
293.15 K, 2000 kPa | 1108.68 | –
293.15 K, 4000 kPa | 1109.68 | –
293.15 K, 6000 kPa | 1110.66 | –
293.15 K, 8000 kPa | 1111.66 | –
293.15 K, 10000 kPa | 1112.63 | –
293.15 K, 12000 kPa | 1113.61 | –
293.15 K, 14000 kPa | 1114.55 | –
293.15 K, 20000 kPa | 1117.38 | –
293.15 K, 30000 kPa | 1121.95 | –
293.15 K, 40000 kPa | 1126.31 | –
293.15 K, 50000 kPa | 1130.56 | –
293.15 K, 60000 kPa | 1134.64 | –
293.65 K, 130 kPa | – | 403.7
293.65 K, 2010 kPa | – | 409.7
293.65 K, 4090 kPa | – | 423
293.65 K, 4310 kPa | – | 418.7
293.65 K, 6110 kPa | – | 433.3
293.65 K, 6580 kPa | – | 434.4
293.65 K, 8080 kPa | – | 447.6
293.65 K, 10200 kPa | – | 458.3
293.65 K, 12100 kPa | – | 466.6
293.65 K, 14310 kPa | – | 478.8
293.65 K, 14330 kPa | – | 483.6
298.15 K, 100 kPa | 1104.31 | –
298.15 K, 2000 kPa | 1105.26 | –
298.15 K, 4000 kPa | 1106.28 | –
298.15 K, 6000 kPa | 1107.31 | –
298.15 K, 8000 kPa | 1108.29 | –
298.15 K, 10000 kPa | 1109.29 | –
298.15 K, 12000 kPa | 1110.27 | –
298.15 K, 14000 kPa | 1111.29 | –
298.15 K, 20000 kPa | 1114.12 | –
298.15 K, 30000 kPa | 1118.74 | –
298.15 K, 40000 kPa | 1123.16 | –
298.15 K, 50000 kPa | 1127.47 | –
298.15 K, 60000 kPa | 1131.57 | –
303.15 K, 100 kPa | 1100.92 | –
303.15 K, 2000 kPa | 1101.88 | –
303.15 K, 4000 kPa | 1102.9 | –
303.15 K, 6000 kPa | 1103.93 | –
303.15 K, 8000 kPa | 1104.97 | –
303.15 K, 10000 kPa | 1105.98 | –
303.15 K, 12000 kPa | 1107.03 | –
303.15 K, 14000 kPa | 1107.96 | –
303.15 K, 20000 kPa | 1110.85 | –
303.15 K, 30000 kPa | 1115.56 | –
303.15 K, 40000 kPa | 1120.01 | –
303.15 K, 50000 kPa | 1124.34 | –
303.15 K, 60000 kPa | 1128.52 | –
303.74 K, 13240 kPa | – | 258.3
303.8 K, 2750 kPa | – | 227.3
303.82 K, 14800 kPa | – | 261.8
303.85 K, 4160 kPa | – | 230.6
303.85 K, 5600 kPa | – | 233.6
303.91 K, 8710 kPa | – | 241.6
303.95 K, 11220 kPa | – | 250.7
303.96 K, 160 kPa | – | 219.1
304.01 K, 2040 kPa | – | 222.9
304.03 K, 1190 kPa | – | 221.6
304.05 K, 6140 kPa | – | 232.1
304.05 K, 7390 kPa | – | 238.6
308.15 K, 100 kPa | 1097.49 | –
308.15 K, 2000 kPa | 1098.5 | –
308.15 K, 4000 kPa | 1099.56 | –
308.15 K, 6000 kPa | 1100.61 | –
308.15 K, 8000 kPa | 1101.64 | –
308.15 K, 10000 kPa | 1102.66 | –
308.15 K, 12000 kPa | 1103.66 | –
308.15 K, 14000 kPa | 1104.66 | –
308.15 K, 20000 kPa | 1107.61 | –
308.15 K, 30000 kPa | 1112.34 | –
308.15 K, 40000 kPa | 1116.89 | –
308.15 K, 50000 kPa | 1121.29 | –
308.15 K, 60000 kPa | 1125.53 | –
312.95 K, 650 kPa | – | 137.4
312.95 K, 1600 kPa | – | 139.3
313.05 K, 130 kPa | – | 137.3
313.05 K, 2670 kPa | – | 141.1
313.05 K, 4260 kPa | – | 142.8
313.05 K, 6130 kPa | – | 145.7
313.05 K, 8180 kPa | – | 150.2
313.05 K, 10130 kPa | – | 152.7
313.05 K, 12200 kPa | – | 157.1
313.05 K, 14260 kPa | – | 161
313.15 K, 100 kPa | 1094.13 | –
313.15 K, 2000 kPa | 1095.13 | –
313.15 K, 4000 kPa | 1096.26 | –
313.15 K, 6000 kPa | 1097.28 | –
313.15 K, 8000 kPa | 1098.3 | –
313.15 K, 10000 kPa | 1099.33 | –
313.15 K, 12000 kPa | 1100.39 | –
313.15 K, 14000 kPa | 1101.41 | –
313.15 K, 20000 kPa | 1104.39 | –
313.15 K, 30000 kPa | 1109.19 | –
313.15 K, 40000 kPa | 1113.81 | –
313.15 K, 50000 kPa | 1118.25 | –
313.15 K, 60000 kPa | 1122.52 | –
318.15 K, 100 kPa | 1090.78 | –
318.15 K, 2000 kPa | 1091.83 | –
318.15 K, 4000 kPa | 1092.91 | –
318.15 K, 6000 kPa | 1094 | –
318.15 K, 8000 kPa | 1095.03 | –
318.15 K, 10000 kPa | 1096.1 | –
318.15 K, 12000 kPa | 1097.15 | –
318.15 K, 14000 kPa | 1098.18 | –
318.15 K, 20000 kPa | 1101.2 | –
318.15 K, 30000 kPa | 1106.06 | –
318.15 K, 40000 kPa | 1110.72 | –
318.15 K, 50000 kPa | 1115.21 | –
318.15 K, 60000 kPa | 1119.54 | –
323.15 K, 100 kPa | 1087.45 | –
323.15 K, 2000 kPa | 1088.5 | –
323.15 K, 4000 kPa | 1089.6 | –
323.15 K, 6000 kPa | 1090.68 | –
323.15 K, 8000 kPa | 1091.76 | –
323.15 K, 10000 kPa | 1092.8 | –
323.15 K, 12000 kPa | 1093.87 | –
323.15 K, 14000 kPa | 1094.9 | –
323.15 K, 20000 kPa | 1097.97 | –
323.15 K, 30000 kPa | 1102.88 | –
323.15 K, 40000 kPa | 1107.6 | –
323.15 K, 50000 kPa | 1112.12 | –
323.15 K, 60000 kPa | 1116.48 | –
323.43 K, 140 kPa | – | 83.7
323.46 K, 680 kPa | – | 84.3
323.55 K, 1710 kPa | – | 85
323.56 K, 13080 kPa | – | 96.3
323.58 K, 14330 kPa | – | 97.4
323.63 K, 9640 kPa | – | 92.7
323.65 K, 130 kPa | – | 83.6
323.65 K, 2760 kPa | – | 85.9
323.65 K, 6190 kPa | – | 88.2
323.65 K, 11060 kPa | – | 93.2
323.68 K, 4240 kPa | – | 86.8
323.73 K, 8190 kPa | – | 90.2
323.75 K, 10400 kPa | – | 92.1
323.75 K, 12340 kPa | – | 94
